In paper PMC5843628, “Phosphorylation of conserved phosphoinositide binding pocket regulates sorting nexin membrane targeting” (Nature Communications, 2018):

Biological target: full length human SNX3 (sorting nexin 3) (Homo sapiens, UniProt O60493)
Assay: NMR chemical shift perturbation titration, […]-labelled protein
Type: binding

Sequence of full length human SNX3 (sorting nexin 3) (O60493 whole entry): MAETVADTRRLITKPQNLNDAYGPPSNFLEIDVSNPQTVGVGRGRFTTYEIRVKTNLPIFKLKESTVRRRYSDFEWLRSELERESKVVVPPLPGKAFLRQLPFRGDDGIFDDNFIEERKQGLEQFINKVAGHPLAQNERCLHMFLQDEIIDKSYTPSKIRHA

SMILES	Kd
O=P(O)(O)O[C@@H]1[C@H](O)[C@H](OP(=O)(O)O)[C@@H](O)[C@H](O)[C@H]1O [Ins(1,3)P2]	170 ± 34.1 µM
CCCC(=O)OC[C@H](COP(=O)(O)O[C@@H]1[C@H](O)[C@H](OP(=O)(O)O)[C@@H](O)[C@H](O)[C@H]1O)OC(=O)CCC [c4-PI3P]	159 ± 36.1 µM
